Laboratory results from US5731353A, “Stilbene derivatives and pharmaceutical compositions containing them” (Ajinomoto Co., Inc., priority 1993, dated 1998).
In brackets after ≈: the same amount, converted by molar mass. Where two headings read alike, the source gives them in different places.

Key:
[1] = tested on: Mouse P388 leukemia cells; assay: Cytotoxicity Testing: 50% growth-inhibiting concentration, MTT method; format: cell-based; conditions: read-out: in vitro IC50 (50% growth-inhibiting concentration)
Procedure: Mouse P388 leukemia cells were used as cancer cells for this test. The cancer cells were incubated in RPMI-1640 medium containing 5 μM 2-mercaptoethanol and 10% fetal calf serum. More specifically, the cancer cells were seeded in a 96-well microplate in an amount of 1×10^4cell/50 μl/well, 25 μl/well of an aqueous solution of the test compound mentioned below (4 μg/ml) were added to each well, and the cells were incubated therein for 2 days at 37° C. After the incubation, the number of the living cells was counted using the MTT method and a dose-reaction curve was formed from the counted data. Based on the curve, the 50% growth-inhibiting concentration (IC50) of the test compound was calculated. As a comparative compound, Combretastatin A-4 was used.

Colon 26 = assay: Evaluation of Antitumor Activity: Colon 26 inoculated sc into CD2F1 mice; format: in vivo; conditions: tumor volume 21 days after the day of administration
Procedure: Colon 26 was inoculated sc into CD2F1 mice. After a week, the size of the tumor was measured and the volume of the tumor was calculated. Mice were selected on the basis of the volume of the tumor and administration of drug was begun. Twenty-one days after the day of administration, the size of the tumor was measured and the volume of the tumor was calculated. The inhibition ratio of growth of tumor (I.R.) was calculated as shown below. I.R.(%)={1-(Average Tumor Volume of Treated Mice)/(Average Tumor Volume of Control Mice)}×100

[2] = Solubility in phosphate buffer (pH 7.0), HPLC of supernatant; format: physicochemical
Procedure: An excess amount of each sample was dissolved in 0.1 ml of phosphate buffer (PH 7.0). The mixture was sonicated and centrifuged. The supernatant was subjected to HPLC and the solubility was measured.

[3] = 48 h, mouse P388 leukemia cells, 2 days at 37° C., MTT method
[4] = 40 mg/day, once a day on day 1, day 5 and day 7, perorally
[5] = aqueous buffer, pH 7.0, read-out: Solubility in Phosphate Buffer (PH 7.0)
[6] = 40 mg/day, once a day on day 1, day 5 and day 7, intravenously

COc1cc(/C(C#N)=C\c2ccc(C)c(N)c2)cc(OC)c1OC [(E)-3-(3-amino-4-methylphenyl)-2-(3,4,5-trimethoxyphenyl)-prop-2-ene-nitrile]
IC50 [1, 3]: 2 ng/mL (≈ 0.00617 µM)
in vivo I.R. (inhibition ratio of growth of tumor) (Colon 26; [4]): 41.0%

COc1ccc(/C=C\c2cc(OC)c(OC)c(OC)c2)cc1N [(Z)-1-(3-Amino-4-methoxyphenyl)-2-(3,4,5-trimethoxyphenyl)ethene]
IC50 [1, 3]: 0.2 ng/mL (≈ 0.000634 µM)
solubility [2, 5]: 34000 µg/mL (≈ 108000 µM)
in vivo I.R. (inhibition ratio of growth of tumor) (Colon 26; [6]): 69.5%

COc1cc(/C(C#N)=C\c2ccc(Cl)c(N)c2)cc(OC)c1OC [(E)-3-(3-amino-4-chlorophenyl)-2-(3,4,5-trimethoxyphenyl)-prop-2-ene-nitrile]
IC50 [1, 3]: 1.8 ng/mL (≈ 0.00522 µM)
in vivo I.R. (inhibition ratio of growth of tumor) (Colon 26; 80 mg/day, once a day on day 1, day 5 and day 7, perorally): 23.7%

COc1cc(/C=C\c2ccc(Cl)c(N)c2)cc(OC)c1OC [(Z)-1-(3-amino-4-chlorophenyl)-2-(3,4,5-trimethoxyphenyl)ethene]
IC50 ([1]; Mus musculus, P388, 48 h): 20 ng/mL (≈ 0.0625 µM)

COc1ccc(/C=C\c2cc(OC)c(OC)c(OC)c2)cc1O [Combretastatin A-4, reference compound]
IC50 [1, 3]: 0.2 ng/mL (≈ 0.000632 µM)
solubility ([2]; pH 7, aqueous buffer): < 100 µg/mL
in vivo I.R. (inhibition ratio of growth of tumor) (Colon 26; [4]): 4.6%

COc1cc(/C=C\c2ccc(C)c(N)c2)cc(OC)c1OC [(Z)-1-(3-amino-4-methylphenyl)-2-(3,4,5-trimethoxyphenyl)ethene]
IC50 ([1]; Mus musculus, P388, 48 h): 3.5 ng/mL (≈ 0.0117 µM)
in vivo I.R. (inhibition ratio of growth of tumor) (Colon 26; [6]): 61.6%

COc1ccc(/C=C(/C#N)c2cc(OC)c(OC)c(OC)c2)cc1N [(E)-3-(3-amino-4-methoxyphenyl)-2-(3,4,5-trimethoxyphenyl)-prop-2-ene-nitrile]
IC50 [1, 3]: 0.2 ng/mL (≈ 0.000588 µM)
solubility [2, 5]: 1700 µg/mL (≈ 4990 µM)
in vivo I.R. (inhibition ratio of growth of tumor) (Colon 26; 10 mg/day, once a day from day 1 to day 10, intravenously): 83.4%
